Source: patent US10206937B2, “Boronic acid derivatives and therapeutic uses thereof” (Qpex Biopharma, Inc., priority 2014, dated 2019)

Test system: strains of Enterobacteriaceae producing various carbapenemases (class A, D and B; 104 strains)
Experiment: Antibiotics potentiation by Compound 27 (MIC; meropenem, doripenem, ertapenem, cefepime)
Format: cell-based
Conditions: + 27 = with Compound 27 at fixed 4 μg/ml

C[C@@H](O)[C@H]1C(=O)N2C(C(=O)O)=C(S[C@@H]3CN[C@H](CNS(N)(=O)=O)C3)[C@H](C)[C@H]12 [D]
MIC (strain CF1012 Citrobacter freundii (KPC-2)): Y (MIC of 1 μg/mL to 10 μg/mL) | MIC (strain CF1021 Citrobacter freundii (CMY-type; VIM-1)): Y (MIC of 1 μg/mL to 10 μg/mL) | MIC (strain CF1022 Citrobacter freundii (SHV-12(2be), TEM-OSBL(2b); IMP-8)): Y (MIC of 1 μg/mL to 10 μg/mL) | MIC (strain CF1023 Citrobacter freundii (SHV-12(2be), TEM-OSBL(2b); CTX-M-3; CMY-34; NDM-1)): Z (MIC of greater than 10 μg/mL) | MIC (strain CL1080 Enterobacter cloacae (IMP-1)): X (MIC of less than 1 μg/mL) | MIC (strain EA1019 Enterobacter aerogenes (SHV-5, VIM-1)): Z (MIC of greater than 10 μg/mL) | MIC (strain EC1007 Escherichia coli (KPC-3)): X (MIC of less than 1 μg/mL) | MIC (strain EC1061 Escherichia coli (NDM-1, CMY-6)): Z (MIC of greater than 10 μg/mL) | MIC (strain EC1062 Escherichia coli (OXA-48, CTX-M-15)): X (MIC of less than 1 μg/mL) | MIC (strain EC1064 Escherichia coli (NDM-1, CMY-6, CTX-M-15)): Z (MIC of greater than 10 μg/mL) | MIC (strain EC1065 Escherichia coli (IMP-1)): Y (MIC of 1 μg/mL to 10 μg/mL) | MIC (strain EC1068 Escherichia coli (VIM-1)): Z (MIC of greater than 10 μg/mL) | MIC (strain EC1069 Escherichia coli (CTX-M-27; NDM-1)): Z (MIC of greater than 10 μg/mL) | MIC (strain EC1070 Escherichia coli (TEM-OSBL(2b); CMY-42; NDM-5)): Z (MIC of greater than 10 μg/mL) | MIC (strain EC1072 Escherichia coli (CTX-M-3; NDM-1)): Z (MIC of greater than 10 μg/mL) | MIC (strain ECL1004 Enterobacter cloacae (NMC-A)): Y (MIC of 1 μg/mL to 10 μg/mL) | MIC (strain ECL1026 Enterobacter cloacae (KPC-2, TEM-1)): Y (MIC of 1 μg/mL to 10 μg/mL) | MIC (strain ECL1036 Enterobacter cloacae (KPC-3, TEM-1)): Y (MIC of 1 μg/mL to 10 μg/mL) | MIC (strain ECL1045 Enterobacter cloacae (VIM-1)): Y (MIC of 1 μg/mL to 10 μg/mL) | MIC (strain ECL1055 Enterobacter cloacae (KPC-3, TEM)): Y (MIC of 1 μg/mL to 10 μg/mL) | MIC (strain ECL1057 Enterobacter cloacae (NDM-1, TEM-1, CTX-M-15)): Z (MIC of greater than 10 μg/mL) | MIC (strain ECL1058 Enterobacter cloacae (KPC-3, SHV-11, TEM-1)): Z (MIC of greater than 10 μg/mL) | MIC (strain ECL1059 Enterobacter cloacae (KPC-3, SHV-12, TEM-1)): Y (MIC of 1 μg/mL to 10 μg/mL) | MIC (strain ECL1061 Enterobacter cloacae (KPC-3, Hyper AmpC expression)): Y (MIC of 1 μg/mL to 10 μg/mL) | MIC (strain ECL1082 Enterobacter cloacae (VIM-1)): Z (MIC of greater than 10 μg/mL) | MIC (strain ECL1084 Enterobacter cloacae (CTX-M-15; ACT-16; NDM-1)): Z (MIC of greater than 10 μg/mL) | MIC (strain ECL1085 Enterobacter cloacae (SHV-31(2be), TEM-1(2b); CTX-M-15; NDM-1)): Z (MIC of greater than 10 μg/mL) | MIC (strain ECL1086 Enterobacter cloacae (VIM-31, OXA-48(c))): Y (MIC of 1 μg/mL to 10 μg/mL) | MIC (strain ECL1087 Enterobacter cloacae (VIM-1)): Z (MIC of greater than 10 μg/mL) | MIC (strain ECL1088 Enterobacter cloacae (TEM-1(2b); CTX-M-14; ACT-type; VIM-1)): Z (MIC of greater than 10 μg/mL) | MIC (strain ECL1089 Enterobacter cloacae (ACT-type; IMP-1)): Z (MIC of greater than 10 μg/mL) | MIC (strain ECL1090 Enterobacter cloacae (TEM-1(2b); CTX-M-22; ACT-type; IMP-8)): Y (MIC of 1 μg/mL to 10 μg/mL) | MIC (strain ECL1091 Enterobacter cloacae (VIM-1)): Z (MIC of greater than 10 μg/mL) | MIC (strain ECL1092 Enterobacter cloacae (TEM-OSBL(2b); ACT-32; VIM-1)): Y (MIC of 1 μg/mL to 10 μg/mL) | MIC (strain ECL1093 Enterobacter cloacae (TEM-OSBL(2b); ACT-32; VIM-1)): Y (MIC of 1 μg/mL to 10 μg/mL) | MIC (strain ECL1094 Enterobacter cloacae (VIM-1)): Z (MIC of greater than 10 μg/mL) | MIC (strain ECL1096 Enterobacter cloacae (CMY-4, VIM-4, OXA-48(c))): Y (MIC of 1 μg/mL to 10 μg/mL) | MIC (strain ECL1097 Enterobacter cloacae (SHV-31(2be), TEM-OSBL(2b); CTX-M-15; ACT-31; NDM-1)): Z (MIC of greater than 10 μg/mL) | MIC (strain ECL1098 Enterobacter cloacae (TEM-OSBL(2b); DHA-1; ACT-16; NDM-1)): Z (MIC of greater than 10 μg/mL) | MIC (strain KP1001 Klebsiella pneumoniae (KPC TEM SHV)): Z (MIC of greater than 10 μg/mL) | MIC (strain KP1002 Klebsiella pneumoniae (KPC TEM SHV)): Y (MIC of 1 μg/mL to 10 μg/mL) | MIC (strain KP1003 Klebsiella pneumoniae (KPC TEM SHV)): Y (MIC of 1 μg/mL to 10 μg/mL) | MIC (strain KP1004 Klebsiella pneumoniae (KPC-2, TEM-1, SHV-11)): Y (MIC of 1 μg/mL to 10 μg/mL) | MIC (strain KP1008 Klebsiella pneumoniae (KPC-2)): X (MIC of less than 1 μg/mL) | MIC (strain KP1014 Klebsiella pneumoniae (VIM-1, TEM, SHV)): Z (MIC of greater than 10 μg/mL) | MIC (strain KP1054 Klebsiella pneumoniae (VIM-1, SHV-11)): Z (MIC of greater than 10 μg/mL) | MIC (strain KP1059 Klebsiella pneumoniae (VIM-1, SHV-11)): Z (MIC of greater than 10 μg/mL) | MIC (strain KP1061 Klebsiella pneumoniae (KPC-3, SHV-11, TEM-1)): Z (MIC of greater than 10 μg/mL) | MIC (strain KP1064 Klebsiella pneumoniae (KPC-2, SHV-11, TEM-1)): Z (MIC of greater than 10 μg/mL) | MIC (strain KP1065 Klebsiella pneumoniae (VIM-1, SHV-11)): Y (MIC of 1 μg/mL to 10 μg/mL) | MIC (strain KP1070 Klebsiella pneumoniae (KPC-2, SHV-11, TEM-1)): Y (MIC of 1 μg/mL to 10 μg/mL) | MIC (strain KP1074 Klebsiella pneumoniae (KPC-3, SHV-11, TEM)): Z (MIC of greater than 10 μg/mL)
